# PMC7316778 (Nature Communications, 2020)
# Where “and” joins values, the source holds several entries; their conditions need not be identical. Identical values can stand only once. Like-named read-outs stand apart in the source and are kept apart here.
# Experiments:
# Test in all cases: SelectScreen kinase assay
# TAOK1 = TAOK1 (Homo sapiens, UniProt Q7L7X3)
# Method: (§1) Selectivity profiling assays were performed by the Invitrogen SelectScreen™ Services. […] The concentration of ATP was selected to be equal to the KM, unless indicated otherwise.
# TAOK3 (JIK) = molecular target: T1, TAOK3 (JIK) (Homo sapiens, UniProt Q9H2K8); conditions: for Inhibition at 1 µM (%): LanthaScreen Binding
# T1 sequence (Q9H2K8 1-898): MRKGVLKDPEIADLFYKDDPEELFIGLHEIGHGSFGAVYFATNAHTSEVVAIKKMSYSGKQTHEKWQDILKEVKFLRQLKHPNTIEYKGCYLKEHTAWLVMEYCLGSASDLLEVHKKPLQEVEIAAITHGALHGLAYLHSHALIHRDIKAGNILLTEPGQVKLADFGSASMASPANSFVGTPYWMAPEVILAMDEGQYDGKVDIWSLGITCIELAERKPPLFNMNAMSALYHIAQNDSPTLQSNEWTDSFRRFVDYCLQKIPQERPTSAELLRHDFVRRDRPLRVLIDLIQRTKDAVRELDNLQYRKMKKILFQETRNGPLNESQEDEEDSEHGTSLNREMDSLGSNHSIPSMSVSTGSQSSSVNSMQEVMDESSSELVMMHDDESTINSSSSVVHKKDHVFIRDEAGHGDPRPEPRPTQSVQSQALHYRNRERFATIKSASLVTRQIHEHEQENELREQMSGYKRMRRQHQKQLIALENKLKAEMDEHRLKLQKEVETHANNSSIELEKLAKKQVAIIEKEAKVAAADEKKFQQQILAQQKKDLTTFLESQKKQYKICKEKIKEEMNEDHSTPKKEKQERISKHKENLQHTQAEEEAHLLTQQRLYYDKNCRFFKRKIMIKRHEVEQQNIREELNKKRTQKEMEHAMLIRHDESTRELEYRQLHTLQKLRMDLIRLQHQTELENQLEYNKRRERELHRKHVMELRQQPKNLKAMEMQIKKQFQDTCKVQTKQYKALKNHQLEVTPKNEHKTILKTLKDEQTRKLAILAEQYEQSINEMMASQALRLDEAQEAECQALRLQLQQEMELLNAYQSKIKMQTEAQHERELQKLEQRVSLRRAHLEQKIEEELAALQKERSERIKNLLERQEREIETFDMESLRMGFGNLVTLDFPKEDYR
# Method: as §1
# GRK5 = GRK5 (Homo sapiens, UniProt P34947)
# Method: as §1
# MAPKAPK3 = MAPKAPK3 (Homo sapiens, UniProt Q16644)
# Method: as §1
# NUAK2 = molecular target: T2, NUAK2 (Homo sapiens, UniProt Q9H093)
# T2 sequence (Q9H093 1-628): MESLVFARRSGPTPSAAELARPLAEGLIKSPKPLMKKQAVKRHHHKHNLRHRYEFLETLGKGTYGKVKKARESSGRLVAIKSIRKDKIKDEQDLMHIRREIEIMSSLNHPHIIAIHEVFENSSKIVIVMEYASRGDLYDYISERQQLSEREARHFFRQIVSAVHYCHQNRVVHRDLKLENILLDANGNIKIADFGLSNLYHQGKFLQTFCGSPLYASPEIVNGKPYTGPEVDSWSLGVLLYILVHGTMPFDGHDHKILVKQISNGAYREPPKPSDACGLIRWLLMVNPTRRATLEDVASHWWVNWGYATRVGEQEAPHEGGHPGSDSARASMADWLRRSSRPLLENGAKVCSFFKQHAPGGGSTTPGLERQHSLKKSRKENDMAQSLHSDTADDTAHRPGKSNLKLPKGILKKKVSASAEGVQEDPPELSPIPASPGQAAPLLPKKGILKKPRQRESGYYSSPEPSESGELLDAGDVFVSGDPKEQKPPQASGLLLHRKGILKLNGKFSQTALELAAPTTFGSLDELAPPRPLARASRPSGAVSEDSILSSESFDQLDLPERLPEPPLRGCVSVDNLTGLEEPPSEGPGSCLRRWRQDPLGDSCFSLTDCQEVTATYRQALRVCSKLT
# Method: as §1
# AKT2 (PKB beta) = AKT2 (PKB beta) (Homo sapiens, UniProt P31751); conditions: for Inhibition at 1 µM (%): AKT2 (PKB beta), ZLYTE, ATP Km app
# Method: as §1
# MST1R (RON) = MST1R (RON) (Homo sapiens, UniProt Q04912)
# Method: as §1
# VRK2 = VRK2 (Homo sapiens, UniProt Q86Y07)
# Method: as §1
# PIP5K1C = PIP5K1C (Homo sapiens, UniProt O60331)
# Method: as §1
# PRKCA (PKC alpha) = PRKCA (PKC alpha) (Homo sapiens, UniProt P17252)
# Method: as §1
# CDK17/cyclin Y = CDK17/cyclin Y (Homo sapiens, UniProt Q00537)
# Method: as §1
# [1] = 1 h, 1 μM WEL028, 1 h preincubation
# [2] = read-out: Inhibition at 1 µM (%), 1 µM, LanthaScreen Binding
# Chain of MAPKAPK3 (Q16644 whole entry): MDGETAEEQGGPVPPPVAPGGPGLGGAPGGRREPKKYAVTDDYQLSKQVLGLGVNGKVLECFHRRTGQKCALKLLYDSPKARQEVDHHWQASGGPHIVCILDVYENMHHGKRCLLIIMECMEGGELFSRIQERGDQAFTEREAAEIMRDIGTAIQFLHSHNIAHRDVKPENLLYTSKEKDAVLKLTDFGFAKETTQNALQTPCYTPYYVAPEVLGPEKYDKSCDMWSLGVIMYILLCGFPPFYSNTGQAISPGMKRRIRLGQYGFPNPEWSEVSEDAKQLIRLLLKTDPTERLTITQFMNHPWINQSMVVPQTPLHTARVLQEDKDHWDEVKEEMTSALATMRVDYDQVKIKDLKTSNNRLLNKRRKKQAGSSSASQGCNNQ
# Chain of VRK2 (Q86Y07 whole entry): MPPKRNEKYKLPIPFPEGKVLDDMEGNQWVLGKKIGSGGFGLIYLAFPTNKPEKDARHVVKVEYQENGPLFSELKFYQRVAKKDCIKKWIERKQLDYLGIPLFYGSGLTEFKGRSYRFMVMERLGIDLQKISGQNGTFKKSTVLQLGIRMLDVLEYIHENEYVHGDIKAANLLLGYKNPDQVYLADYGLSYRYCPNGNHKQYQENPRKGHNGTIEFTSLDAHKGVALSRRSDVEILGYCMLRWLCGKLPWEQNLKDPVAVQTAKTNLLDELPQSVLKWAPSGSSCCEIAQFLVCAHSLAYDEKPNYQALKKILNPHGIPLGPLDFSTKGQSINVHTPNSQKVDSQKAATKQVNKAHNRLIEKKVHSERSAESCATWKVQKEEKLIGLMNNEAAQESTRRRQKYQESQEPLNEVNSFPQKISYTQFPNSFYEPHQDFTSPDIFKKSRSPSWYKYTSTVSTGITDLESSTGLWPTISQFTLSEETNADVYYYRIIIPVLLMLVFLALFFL
# Chain of MST1R (RON) (Q04912 25-1400): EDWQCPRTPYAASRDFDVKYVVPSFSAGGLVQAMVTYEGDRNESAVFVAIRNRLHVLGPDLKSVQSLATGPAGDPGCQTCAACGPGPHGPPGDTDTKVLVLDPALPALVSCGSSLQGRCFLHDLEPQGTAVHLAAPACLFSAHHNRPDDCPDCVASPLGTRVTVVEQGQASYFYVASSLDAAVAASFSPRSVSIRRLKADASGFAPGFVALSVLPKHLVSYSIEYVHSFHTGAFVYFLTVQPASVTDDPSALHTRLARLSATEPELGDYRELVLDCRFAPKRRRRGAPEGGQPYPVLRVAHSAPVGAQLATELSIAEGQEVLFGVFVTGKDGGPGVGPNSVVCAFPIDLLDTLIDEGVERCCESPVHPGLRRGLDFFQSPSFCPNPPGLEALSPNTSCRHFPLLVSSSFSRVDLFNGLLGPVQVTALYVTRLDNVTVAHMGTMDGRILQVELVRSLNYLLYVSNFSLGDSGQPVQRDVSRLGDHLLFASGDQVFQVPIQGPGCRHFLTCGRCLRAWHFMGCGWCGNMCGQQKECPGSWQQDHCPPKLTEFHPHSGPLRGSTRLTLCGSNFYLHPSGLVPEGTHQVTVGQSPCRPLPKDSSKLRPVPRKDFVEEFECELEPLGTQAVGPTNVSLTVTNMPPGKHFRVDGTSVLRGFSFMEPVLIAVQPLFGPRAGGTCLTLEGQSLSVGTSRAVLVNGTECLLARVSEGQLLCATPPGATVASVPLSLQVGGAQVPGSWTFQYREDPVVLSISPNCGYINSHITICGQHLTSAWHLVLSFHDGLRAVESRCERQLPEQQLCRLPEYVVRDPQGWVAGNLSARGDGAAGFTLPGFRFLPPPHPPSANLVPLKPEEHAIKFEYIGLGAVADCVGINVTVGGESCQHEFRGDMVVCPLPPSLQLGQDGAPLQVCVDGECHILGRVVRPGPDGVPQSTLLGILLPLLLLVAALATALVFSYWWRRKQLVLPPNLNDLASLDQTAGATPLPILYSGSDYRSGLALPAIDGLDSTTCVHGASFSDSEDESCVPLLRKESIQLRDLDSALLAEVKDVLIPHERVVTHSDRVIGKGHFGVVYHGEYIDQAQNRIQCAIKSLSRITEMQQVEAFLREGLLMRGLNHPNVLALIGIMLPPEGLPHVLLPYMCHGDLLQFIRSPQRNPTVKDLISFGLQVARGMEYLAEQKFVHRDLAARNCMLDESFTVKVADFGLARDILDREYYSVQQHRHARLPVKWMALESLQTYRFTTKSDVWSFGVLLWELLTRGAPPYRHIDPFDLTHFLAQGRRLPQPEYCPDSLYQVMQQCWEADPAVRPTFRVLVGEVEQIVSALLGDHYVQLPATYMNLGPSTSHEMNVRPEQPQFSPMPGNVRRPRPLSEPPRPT
# Chain of AKT2 (PKB beta) (P31751 whole entry): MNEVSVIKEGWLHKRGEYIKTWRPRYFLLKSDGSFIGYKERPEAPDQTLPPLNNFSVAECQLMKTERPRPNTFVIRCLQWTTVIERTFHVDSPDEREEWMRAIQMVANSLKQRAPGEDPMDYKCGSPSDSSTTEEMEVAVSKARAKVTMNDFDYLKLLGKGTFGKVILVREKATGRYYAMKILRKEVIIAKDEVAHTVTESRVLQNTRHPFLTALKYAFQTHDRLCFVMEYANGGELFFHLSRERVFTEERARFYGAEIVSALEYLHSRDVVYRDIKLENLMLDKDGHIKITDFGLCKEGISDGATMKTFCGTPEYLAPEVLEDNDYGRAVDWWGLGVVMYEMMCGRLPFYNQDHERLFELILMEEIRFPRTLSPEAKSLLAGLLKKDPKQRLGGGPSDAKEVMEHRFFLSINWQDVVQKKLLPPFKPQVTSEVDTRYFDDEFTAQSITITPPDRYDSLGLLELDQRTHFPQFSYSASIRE
# Chain of CDK17/cyclin Y (Q00537 whole entry): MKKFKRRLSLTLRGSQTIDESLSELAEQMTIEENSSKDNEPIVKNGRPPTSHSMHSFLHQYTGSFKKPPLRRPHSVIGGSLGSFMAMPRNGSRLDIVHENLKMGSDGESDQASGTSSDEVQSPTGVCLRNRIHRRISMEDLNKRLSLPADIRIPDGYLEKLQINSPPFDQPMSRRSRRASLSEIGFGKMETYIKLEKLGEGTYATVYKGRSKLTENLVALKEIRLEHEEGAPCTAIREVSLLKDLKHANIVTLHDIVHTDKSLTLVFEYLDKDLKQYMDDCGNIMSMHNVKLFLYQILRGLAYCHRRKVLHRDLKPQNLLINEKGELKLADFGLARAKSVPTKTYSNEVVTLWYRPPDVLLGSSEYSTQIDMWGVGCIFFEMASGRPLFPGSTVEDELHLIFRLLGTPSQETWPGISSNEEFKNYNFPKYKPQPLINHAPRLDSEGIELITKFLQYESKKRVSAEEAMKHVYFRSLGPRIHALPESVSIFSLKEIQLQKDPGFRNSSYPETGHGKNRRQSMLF
# Chain of CDK17/cyclin Y (Q8ND76 whole entry partner): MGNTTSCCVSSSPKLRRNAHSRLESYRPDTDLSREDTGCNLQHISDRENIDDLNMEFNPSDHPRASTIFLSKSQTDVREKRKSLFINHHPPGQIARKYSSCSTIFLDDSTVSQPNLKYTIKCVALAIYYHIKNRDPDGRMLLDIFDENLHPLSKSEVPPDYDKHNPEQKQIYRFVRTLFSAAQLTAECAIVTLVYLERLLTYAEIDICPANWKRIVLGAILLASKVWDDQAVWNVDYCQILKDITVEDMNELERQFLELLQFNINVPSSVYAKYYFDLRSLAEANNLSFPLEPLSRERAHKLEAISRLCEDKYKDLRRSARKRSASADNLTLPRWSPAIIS
# Chain of GRK5 (P34947 whole entry): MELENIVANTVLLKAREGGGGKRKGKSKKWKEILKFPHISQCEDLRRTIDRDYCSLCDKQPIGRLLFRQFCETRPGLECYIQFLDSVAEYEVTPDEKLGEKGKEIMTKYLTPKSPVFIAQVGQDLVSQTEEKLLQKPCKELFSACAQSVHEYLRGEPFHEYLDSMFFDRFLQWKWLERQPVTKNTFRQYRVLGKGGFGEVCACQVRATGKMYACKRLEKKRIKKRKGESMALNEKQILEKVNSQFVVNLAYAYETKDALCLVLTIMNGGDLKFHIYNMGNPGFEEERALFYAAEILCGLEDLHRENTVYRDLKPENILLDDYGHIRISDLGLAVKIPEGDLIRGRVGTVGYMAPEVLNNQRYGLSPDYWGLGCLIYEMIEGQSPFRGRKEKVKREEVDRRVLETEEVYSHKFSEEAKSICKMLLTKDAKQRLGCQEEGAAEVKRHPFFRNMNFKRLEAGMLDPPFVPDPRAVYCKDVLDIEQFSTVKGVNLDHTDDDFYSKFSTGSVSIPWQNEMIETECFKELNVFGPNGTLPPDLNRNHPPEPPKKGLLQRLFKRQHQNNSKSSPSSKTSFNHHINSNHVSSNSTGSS
smiles,measurement,setting,value
C#CCOc1ccc(Nc2ncc(Cl)c(Nc3ccccc3NC(=O)C=C)n2)c(OC)c1 [Compound 6],inhibition at 1 µM,TAOK1; [1],23%
same,inhibition at 1 µM,TAOK1; [2],24%
same,Inhibition at 1 µM (%),TAOK3 (JIK),2%
same,Inhibition at 1 µM (%),"TAOK3 (JIK); listed as WEL028, 1 µM",0%
same,inhibition at 1 µM,TAOK3 (JIK); [1],1%
same,inhibition at 1 µM,GRK5; 1 h,4%
same,inhibition at 1 µM,GRK5; read-out: Inhibition at 1 µM (%),4%
same,inhibition at 1 µM,MAPKAPK3; [1],9%
same,Inhibition at 1 µM (%),"MAPKAPK3; MAPKAPK3, 1 µM, ZLYTE, ATP Km app, listed as WEL028, 1 µM",10%
same,inhibition at 1 µM,"MAPKAPK3; read-out: Inhibition at 1 µM (%), MAPKAPK3, 1 µM, ZLYTE, ATP Km app",9%
same,Inhibition (%),"NUAK2; 1 μM WEL028, 1 h preincubation",24%
same,Inhibition at 1 µM (%),"NUAK2; NUAK2, 1 µM, LanthaScreen Binding, listed as WEL028, 1 µM",30%
same,inhibition at 1 µM,"NUAK2; read-out: Inhibition at 1 µM (%), NUAK2, 1 µM, LanthaScreen Binding",18%
same,inhibition at 1 µM,AKT2 (PKB beta); [1],-1%
same,Inhibition at 1 µM (%),AKT2 (PKB beta),-2%
same,Inhibition at 1 µM (%),"AKT2 (PKB beta); listed as WEL028, 1 µM",0%
same,inhibition at 1 µM,MST1R (RON); [1],5%
same,Inhibition at 1 µM (%),"MST1R (RON); MST1R (RON), 1 µM, ZLYTE, ATP Km app, listed as WEL028, 1 µM",10% and 0%
same,Inhibition at 1 µM (%),"VRK2; 1 µM, LanthaScreen Binding, listed as WEL028, 1 µM",19%
same,inhibition at 1 µM,VRK2; [1],16%
same,inhibition at 1 µM,VRK2; [2],14%
same,Inhibition at 1 µM (%),"PIP5K1C; PIP5K1C, Adapta, ATP 10, listed as WEL028, 1 µM",1%
same,inhibition at 1 µM,"PIP5K1C; read-out: Inhibition at 1 µM (%), PIP5K1C, Adapta, ATP 10",2%
same,inhibition at 1 µM,PRKCA (PKC alpha); [1],14%
same,Inhibition at 1 µM (%),"PRKCA (PKC alpha); PRKCA (PKC alpha), 1 µM, ZLYTE, ATP Km app, listed as WEL028, 1 µM",10%
same,inhibition at 1 µM,"PRKCA (PKC alpha); read-out: Inhibition at 1 µM (%), PRKCA (PKC alpha), 1 µM, ZLYTE, ATP Km app",19%
same,inhibition at 1 µM,CDK17/cyclin Y; [1],4%
same,inhibition at 1 µM,"CDK17/cyclin Y; read-out: Inhibition at 1 µM (%), CDK17/cyclin Y, 1 µM, ZLYTE, ATP Km app",5%
